Measured values reported in ChEMBL document CHEMBL4414578, “Design and synthesis of pentacyclic triterpene conjugates and their use in medicinal research” (Eur J Med Chem, 2019).

Legend:
[1] = tested on: Human immunodeficiency virus 1; experiment: Antiviral activity against HIV-1 NL4-3 infected in human MT-4 cells; type: functional, organism-based; settings: Human immunodeficiency virus 1, NL4-3, MT4
A549 = experiment: Antitumor activity against human A549 cells by SRB assay; type: functional, cell-based
A2780 = experiment: Antitumor activity against human A2780 cells by SRB assay; type: functional, cell-based
8505C = experiment: Antitumor activity against human 8505C cells by SRB assay; type: functional, cell-based
518A2 = experiment: Antitumor activity against human 518A2 cells by SRB assay; type: functional, cell-based
MCF7 = experiment: Antitumor activity against human MCF7 cells by SRB assay; type: functional, cell-based
P815 = experiment: Cytotoxicity against mouse P815 cells assessed as reduction in cell viability after 48 hrs by MTT assay; type: functional, cell-based; settings: P815, 48 h
Ehrlich = experiment: Cytotoxicity against mouse Ehrlich carcinoma cells assessed as reduction in cell viability after 48 hrs by MTT assay; type: functional, cell-based
CCRF-CEM = experiment: Cytotoxicity against human CCRF-CEM cells assessed as reduction in cell viability; type: functional, cell-based
DU-145 = experiment: Cytotoxicity against human DU145 cells assessed as reduction in cell viability after 72 hrs by MTT assay; type: functional, cell-based; settings: DU-145, 72 h
L132 = experiment: Cytotoxicity against human L-132 cells assessed as reduction in cell viability after 72 hrs by MTT assay; type: functional, cell-based; settings: L132, 72 h
PA-1 = experiment: Cytotoxicity against human PA1 cells assessed as reduction in cell viability after 72 hrs by MTT assay; type: functional, cell-based; settings: PA-1, 72 h
HT-29 = experiment: Cytotoxicity against human HT-29 cells assessed as reduction in cell viability after 72 hrs by MTT assay; type: functional, cell-based; settings: HT-29, 72 h
Leishmania infantum = experiment: Antileishmanial activity against Leishmania infantum promastigotes after 2 to 24 hrs by Giemsa staining-based microscopic analysis; type: functional, organism-based
Plasmodium falciparum = experiment: Antimalarial activity against chloroquine-sensitive Plasmodium falciparum 3D7 by flow cytometry analysis; type: functional, organism-based
HEK-293T = experiment: Cytotoxicity against HEK293T cells assessed as reduction in cell viability; type: cell-based; settings: Homo sapiens
[2] = Selectivity index, ratio of IC50 for HEK293T cells tobIC50 for chloroquine-sensitive Plasmodium falciparum 3D7; type: toxicity; settings: human, read-out: Ratio IC50
[3] = tested on: Human immunodeficiency virus 1; experiment: Antiviral activity against HIV-1; type: functional, organism-based
[4] = tested on: Human immunodeficiency virus 1; experiment: Antiviral activity against HIV-1 3B; type: functional, organism-based; settings: Human immunodeficiency virus 1, 3B

Structure (SMILES): C=C(C)[C@@H]1CC[C@]2(C(=O)OCc3cn([C@H]4C[C@H](n5cc(C)c(=O)[nH]c5=O)O[C@@H]4CO)nn3)CC[C@]3(C)[C@H](CC[C@@H]4[C@@]5(C)CC[C@H](OC(=O)CC(C)(C)C(=O)O)C(C)(C)[C@@H]5CC[C@]43C)[C@@H]12
- EC50 [1]: 0.1 µM

Structure (SMILES): C=C(C)[C@@H]1CC[C@]2(C(=O)NCCNCCN)CC[C@]3(C)[C@H](CC[C@@H]4[C@@]5(C)CC[C@H](OC(C)=O)C(C)(C)[C@@H]5CC[C@]43C)[C@@H]12
- IC50 (A549): 1.4 to 2.24 µM
- IC50 (A2780): 1.4 to 2.24 µM
- IC50 (8505C): 1.4 to 2.24 µM
- IC50 (518A2): 1.4 to 2.24 µM
- IC50 (MCF7): 1.4 to 2.24 µM

Structure (SMILES): CC(=O)O[C@H]1C(CCC[P+](c2ccccc2)(c2ccccc2)c2ccccc2)C[C@]2(C)[C@H]3CC[C@@H]4[C@H]5[C@H](C(C)C)CC[C@]5(C(=O)O)CC[C@@]4(C)[C@]3(C)CC[C@H]2C1(C)C (some centres undefined)
- IC50 (P815): 1.1 to 4.7 µM
- IC50 (Ehrlich): 1.1 to 4.7 µM

Structure (SMILES): C=C(/C=N/N=C/c1ccccn1)[C@@H]1CC[C@]2(C(=O)O)CC[C@]3(C)[C@H](CC[C@@H]4[C@@]5(C)CC[C@H](O)C(C)(C)[C@@H]5CC[C@]43C)[C@@H]12
- IC50 (CCRF-CEM): 3.8 to 4.8 µM

Structure (SMILES): C=C(C)[C@@H]1CC[C@]2(C(=O)O)CC[C@]3(C)[C@H](CC[C@@H]4[C@@]5(C)CC/C(=N\Nc6ccccc6)C(C)(C)[C@@H]5CC[C@]43C)[C@@H]12
- IC50 (DU-145): 1 to 4 µM
- IC50 (L132): 1 to 4 µM
- IC50 (PA-1): 1 to 4 µM
- IC50 (HT-29): 1 to 4 µM

Structure (SMILES): C=C(C)[C@@H]1CC[C@]2(C(=O)NCCN)CC[C@]3(C)[C@H](CC[C@@H]4[C@@]5(C)CC[C@H](O)C(C)(C)[C@@H]5CC[C@]43C)[C@@H]12
- IC50 (CCRF-CEM): 0.7 µM

Structure (SMILES): C=C(C)[C@@H]1CC[C@]2(C(=O)O)CC[C@]3(C)[C@H](CC[C@@H]4[C@@]5(C)CC/C(=N\NC(C)=O)C(C)(C)[C@@H]5CC[C@]43C)[C@@H]12
- IC50 (DU-145): 1 to 4 µM
- IC50 (L132): 1 to 4 µM
- IC50 (PA-1): 1 to 4 µM
- IC50 (HT-29): 1 to 4 µM

Structure (SMILES): C=C(CC=O)[C@@H]1CC[C@]2(COC(=O)n3ccnc3)CC[C@]3(C)[C@H](CC[C@@H]4[C@@]5(C)CC[C@H](O)C(C)(C)[C@@H]5CC[C@]43C)[C@@H]12
- IC50 (Leishmania infantum): 51 µM

Structure (SMILES): C=C(/C=N/N=C/c1ccccc1[N+](=O)[O-])[C@@H]1CC[C@]2(C(=O)O)CC[C@]3(C)[C@H](CC[C@@H]4[C@@]5(C)CC[C@H](O)C(C)(C)[C@@H]5CC[C@]43C)[C@@H]12
- IC50 (CCRF-CEM): 3.8 to 4.8 µM

Structure (SMILES): C=C(C)[C@@H]1CC[C@]2(C(=O)N3CCNCC3)CC[C@]3(C)[C@H](CC[C@@H]4[C@@]5(C)CC[C@H](O)C(C)(C)[C@@H]5CC[C@]43C)[C@@H]12
- IC50 (CCRF-CEM): 0.8 µM

Structure (SMILES): C=C(C)[C@@H]1CC[C@]2(C(=O)O)CC[C@]3(C)[C@H](CC[C@@H]4[C@@]5(C)CC/C(=N\Nc6ccc(F)cc6)C(C)(C)[C@@H]5CC[C@]43C)[C@@H]12
- IC50 (DU-145): 1 to 4 µM
- IC50 (L132): 1 to 4 µM
- IC50 (PA-1): 1 to 4 µM
- IC50 (HT-29): 1 to 4 µM

Structure (SMILES): CC(=O)O[C@H]1C(CCC[P+](c2ccccc2)(c2ccccc2)c2ccccc2)C[C@]2(C)[C@H]3CC[C@@H]4[C@H]5[C@H](C(C)C)CC[C@]5(C(=O)OCc5ccccc5)CC[C@@]4(C)[C@]3(C)CC[C@H]2C1(C)C (some centres undefined)
- IC50 (P815): 1.1 to 4.7 µM
- IC50 (Ehrlich): 1.1 to 4.7 µM

Structure (SMILES): COC(=O)[C@]12CC[C@@H](C(C)C)[C@@H]1[C@H]1CC[C@@H]3[C@@]4(C)CC(CCC[P+](c5ccccc5)(c5ccccc5)c5ccccc5)[C@@H](OC(C)=O)C(C)(C)[C@@H]4CC[C@@]3(C)[C@]1(C)CC2 (some centres undefined)
- IC50 (P815): 1.1 to 4.7 µM
- IC50 (Ehrlich): 1.1 to 4.7 µM

Structure (SMILES): C=C(/C=N/N=C/c1ccccc1O)[C@@H]1CC[C@]2(C(=O)O)CC[C@]3(C)[C@H](CC[C@@H]4[C@@]5(C)CC[C@H](O)C(C)(C)[C@@H]5CC[C@]43C)[C@@H]12
- IC50 (CCRF-CEM): 3.8 to 4.8 µM

Structure (SMILES): C=C(C)[C@@H]1CC[C@]2(C(=O)NCCCN3CCN(CCCN)CC3)CC[C@]3(C)[C@H](CC[C@@H]4[C@@]5(C)CC[C@H](OC(C)=O)C(C)(C)[C@@H]5CC[C@]43C)[C@@H]12
- IC50 (Plasmodium falciparum): 0.22 µM
- IC50 (HEK-293T): 4 µM
- selectivity ratio [2]: 23

Structure (SMILES): C=C(C)[C@@H]1CC[C@]2(C(=O)OCCCCCCCC(=O)N[C@@H](CC(C)C)[C@@H](O)CC(=O)O)CC[C@]3(C)[C@H](CC[C@@H]4[C@@]5(C)CC[C@H](O)C(C)(C)[C@@H]5CC[C@]43C)[C@@H]12
- IC50 [3]: 0.05 µM

Structure (SMILES): COC(=O)[C@]12CC[C@@H](C(C)C)[C@@H]1[C@H]1CC[C@@H]3[C@@]4(C)CC(CCC[P+](c5ccccc5)(c5ccccc5)c5ccccc5)[C@H](OC(C)=O)C(C)(C)[C@@H]4CC[C@@]3(C)[C@]1(C)CC2 (some centres undefined)
- IC50 (P815): 1.1 to 4.7 µM
- IC50 (Ehrlich): 1.1 to 4.7 µM

Structure (SMILES): C=C(C)[C@@H]1CC[C@]2(C(=O)O)CC[C@]3(C)[C@H](CC[C@@H]4[C@@]5(C)CC/C(=N\Nc6c(Cl)cc(Cl)cc6Cl)C(C)(C)[C@@H]5CC[C@]43C)[C@@H]12
- IC50 (DU-145): 1 to 4 µM
- IC50 (L132): 1 to 4 µM
- IC50 (PA-1): 1 to 4 µM
- IC50 (HT-29): 1 to 4 µM

Structure (SMILES): C=C(CO)[C@@H]1CC[C@]2(C(=O)OCCCCCCCCCCC(=O)O)CC[C@]3(C)[C@H](CC[C@@H]4[C@@]5(C)CC[C@H](O)C(C)(C)[C@@H]5CC[C@]43C)[C@@H]12
- IC50 [3]: 0.05 µM

Structure (SMILES): C=C(C)[C@@H]1CC[C@]2(C(=O)n3ccnc3)CC[C@]3(C)[C@H](CC[C@@H]4[C@@]5(C)C=C(OC(=O)n6ccnc6)C(=O)C(C)(C)[C@@H]5CC[C@]43C)[C@@H]12
- IC50 (Leishmania infantum): 26 µM

Structure (SMILES): C=C(C)[C@@H]1CC[C@]2(C(=O)O)CC[C@]3(C)[C@H](CC[C@@H]4[C@@]5(C)CC[C@H](O)C(C)(C)[C@@H]5CC[C@]43C)[C@@H]12 [BETULINIC ACID]
- IC50 (P815): 41 µM
- IC50 (Ehrlich): 54 µM
- IC50 (A549): 0.33 to 1.34 µM
- IC50 (A2780): 0.33 to 1.34 µM
- IC50 (8505C): 0.33 to 1.34 µM
- IC50 (518A2): 0.33 to 1.34 µM
- IC50 (MCF7): 0.33 to 1.34 µM

Structure (SMILES): CCCCCCCCCCCCCCCCOP(=O)([O-])OCC[N+](C)(C)C [MILTEFOSINE]
- EC50 [4]: 0.01 to 0.33 µM
- IC50 (Leishmania infantum): 6 µM

Structure (SMILES): CC1(C)CC[C@]2(C(=O)O)CC[C@]3(C)C(=CC[C@@H]4[C@@]5(C)CC[C@H](O)C(C)(C)[C@@H]5CC[C@]43C)[C@@H]2C1 [OLEANOLIC_ACID]
- EC50 [4]: 0.01 to 0.33 µM

Structure (SMILES): C[C@H]1[C@H](C)CC[C@]2(C(=O)O)CC[C@]3(C)C(=CC[C@@H]4[C@@]5(C)CC[C@H](O)C(C)(C)[C@@H]5CC[C@]43C)[C@H]12 [URSOLIC ACID]
- EC50 [4]: 0.01 to 0.33 µM

Structure (SMILES): Cc1cn([C@H]2C[C@H](N=[N+]=[N-])[C@@H](CO)O2)c(=O)[nH]c1=O [ZIDOVUDINE]
- EC50 [1]: 0.1 µM
